Data: patent US6034134A, “1-Amino-alkylcyclohexane NMDA receptor antagonists” (Merz + Co. GmbH & Co., priority 1998, dated 2000)
Like-named read-outs stand apart in the source and are kept apart here.

Columns and labels:
cortical neurones = assay: Excitotoxicity: glutamate toxicity in cultured cortical neurones (MTT); assay type: cell-based, rat; settings: Rattus norvegicus, Cortical neurone, 100 μM glutamate
Method: Cortical neurones were obtained from cerebral cortices of 17/18 day old fetal rats (Wistar), in general following the dissociation procedure described by. After short trypsinization and gentle trituration with fire-polished Pasteur pipettes, the cell suspension was washed by centrifugation. Cells were suspended in serum-free Neurobasal medium with B27 supplement (GIBCO) before plating onto poly-L-lysine (Sigma; 0.2 mg/ml, 20 h, 4° C.) and laminin (Sigma; 2 μg/ml, 1 h, 37° C.)-coated 96-well plates (Falcon, Primaria) at a density of 5×10^4 cells/well. Cortical neurones were maintained at 37° C. in humidified 10% CO2 /90% air. […] The medium was changed first after 4 days in vitro and then every 4 days by replacing 2/3 of the medium with astrocyte-conditioned medium. Cortical neurones between day 12 and 14 in culture were used for the experiments.
New-born rat astrocytes were isolated non-enzymatically according to the method of [24]. Briefly, both hemispheres were dissected from 2-day-old rats, passed through an 80 μm gauze, and triturated with Pasteur pipettes. Cell suspension was made in Dulbecco's modified essential medium (DMEM, Gibco) supplemented with 10% fetal calf serum (FCS, Hyclone), 2 mM glutamine (Gibco) and 50 μg/ml gentamycin and transferred into untreated, plastic culture flasks (Corning; […]). Two days after plating the flasks were shaken for 10 minutes on a rotary platform (150 U/min) to remove microglial cells. The cultures were grown to confluency within 14 days, and the culture medium was changed twice weekly. Thereafter, the glial monolayers were extensively washed with serum-free Neurobasal medium (Gibco) to remove the serum. Flasks were then shaken several times to remove oligodendrocytes and neurones. To obtain conditioned medium from primary astrocytes, the cultures were incubated with fresh Neurobasal medium supplemented with B27 andglutamine. Every 2-3 days the conditioned medium was collected and replaced by fresh medium up to 4 times.
Exposure to EAA was performed in serum-free Neurobasal medium containing 100 μM glutamate and the drug to be tested. After 20 h of incubation, the cytotoxic effect was morphologically examined under a phase contrast microscope and biochemically quantified by measuring cell viability with the MTT test (Promega). This calorimetric assay measures the reduction of a tetrazolium component (MTT) into an insoluble formazan product by the mitochondria of living cells. After incubation of the cortical neurones with the dye solution for approximately 1-4 hours, a solubilization solution was added to lyse the cells and solubilize the colored product (incubation overnight at 37° C., 10% CO2, 90% RH). These samples were then read using an Elisa plate reader (Thermomax, MWG Biotech) at a wavelength of 570 nm. The amount of color produced was directly proportional to the number of viable cells.
(§1) IC50 s in patch clamp, excitotoxicity, and binding studies were calculated according to the four parameter logistic equation using the Grafit computer program (Erithacus Software, England). Ki value for binding studies were then determined according to Cheng and Prusoff. Binding values presented are means±SEM of 3-5 determinations (each performed in duplicate). […] Pearson product moment correlation analysis (Sigma Stat, Jandel Scientific) was used to compare in vitro potencies and in vivo anticonvulsant activity.

[1] = Maximal electroshock (MES)-induced convulsions in mice; assay type: in vivo; settings: Mus musculus, ip, 0.5 h, mice, i.p., read-out: MES ED50
Method: (§2) NMR female mice (18-28 g) housed 5 per cage were used for the maximal electroshock (MES) and motor impairment tests. […] All compounds were dissolved in 0.9% saline.
(§3) The MES test was performed together with tests for myorelaxant action (traction reflex) and motor coordination (rotarod). For the traction reflex test mice were placed with their forepaws on a horizontal rod and were required to place all 4 paws on the wire within 10 seconds. To test ataxia (motor coordination) mice were placed on rotarod (5 rpm) and were required to remain on the rod for 1 minute. […] These tests were followed by MES (100 Hz, 0.5 second shock duration, 50 mA shock intensity, 0.9 ms impulse duration, Ugo Basile) applied through corneal electrodes. The presence of tonic convulsions was scored (tonic extension of hind paws with minimum angle to the body of 90°). The aim was to obtain ED50 s for all parameters scored (anticonvulsive activity and motor side effects) with use of the Litchfield Wilcoxon test for quantal dose responses. Division of the ED50 for side effects (ataxia or myorelaxation) by the ED50 for antagonism of electroshock convulsions was used as a therapeutic index (TI). […]

[2] = Traction reflex test (myorelaxant action) in mice, therapeutic index versus MES; assay type: in vivo; settings: ED50 for traction reflex impairment divided by ED50 for MES; for TI Tract: 30 min
Method: as §2, §3

[3] = Rotarod test (motor coordination, ataxia) in mice, therapeutic index versus MES; assay type: in vivo; settings: mouse, in vivo, ip; ED50 for rotarod failure divided by ED50 for MES; read-out: TI Rot.
Method: All compounds were dissolved in 0.9% saline.
The MES test was performed together with tests for myorelaxant action (traction reflex) and motor coordination (rotarod). For the traction reflex test mice were placed with their forepaws on a horizontal rod and were required to place all 4 paws on the wire within 10 seconds. To test ataxia (motor coordination) mice were placed on rotarod (5 rpm) and were required to remain on the rod for 1 minute. […] These tests were followed by MES (100 Hz, 0.5 second shock duration, 50 mA shock intensity, 0.9 ms impulse duration, Ugo Basile) applied through corneal electrodes. The presence of tonic convulsions was scored (tonic extension of hind paws with minimum angle to the body of 90°). The aim was to obtain ED50 s for all parameters scored (anticonvulsive activity and motor side effects) with use of the Litchfield Wilcoxon test for quantal dose responses. Division of the ED50 for side effects (ataxia or myorelaxation) by the ED50 for antagonism of electroshock convulsions was used as a therapeutic index (TI).
as §1, with “Prusoff.” for “Prusoff. Binding values presented are means±SEM of 3-5 determinations (each performed in duplicate).”

[4] = Table 7, 20 h, read-out: Glut. Tox. IC50
[5] = Table 9, read-out: Glut Tox IC50
[6] = Table 8, 95% confidence limits in parentheses

SMILES | IC50 (cortical neurones; [4]) | IC50 (cortical neurones; [5]) | ED50 ([1]; Table 7, 30 min before) | ED50 [1, 6] | TI Tract [2] | selectivity ratio at 0.5 h ([2]; mouse, in vivo, ip, read-out: TI Tract) | selectivity ratio at 0.5 h [3]
C[C@@H]1CC(C)(C)C[C@@](C)(N)C1 (relative stereo) [Mrz 2/607] | 10.1 µM | 10.1 µM | 22.9 mg/kg | 22.9 mg/kg | 1.3 |  | 
CCC[C@@]1(C)C[C@H](C)C[C@@](C)(N)C1 (relative stereo) [Mrz 2/618] | 17.6 µM | 17.6 µM | 24 mg/kg | 24 mg/kg | 1.2 |  | 
CCC[C@]1(C)C[C@@H](C)C[C@@](C)(N)C1 (relative stereo) [Mrz 2/619] | 30.9 µM | 30.9 µM | 44.6 mg/kg | 44.6 mg/kg | 1.0 |  | 
CC[C@@]1(C)C[C@H](C)C[C@@](C)(N)C1 (relative stereo) [Mrz 2/622] | 19.3 µM | 19.3 µM | 21 mg/kg | 21 mg/kg | 1.1 |  | 
CC[C@]1(C)C[C@@H](C)C[C@@](C)(N)C1 (relative stereo) [Mrz 2/624] | 2.7 µM | 2.7 µM | 47.2 mg/kg | 47.2 mg/kg | 0.9 |  | 
C[C@@H]1CCC[C@@](C)(N)C1 (relative stereo) [Mrz 2/625] | 39.4 µM | 39.4 µM | 130 mg/kg | 130 mg/kg | 0.5 |  | 
CCC[C@@H]1CCC[C@@](C)(N)C1 (relative stereo) [Mrz 2/627] | 26.6 µM | 26.6 µM | 43.9 mg/kg | 43.9 mg/kg | 0.8 |  | 
CCC[C@H]1CCC[C@@](C)(N)C1 (relative stereo) [Mrz 2/628] | 27.3 µM | 27.3 µM | 73.2 mg/kg | 73.2 mg/kg | 0.8 |  | 
CC[C@@H]1CCC[C@@](C)(N)C1 (relative stereo) [Mrz 2/629] | > 300 µM | > 300 µM | 58.5 mg/kg | 58.5 mg/kg | 0.9 |  | 
CC[C@H]1CCC[C@@](C)(N)C1 (relative stereo) [Mrz 2/630] | > 100 µM | > 100 µM | > 30 mg/kg | > 30 mg/kg |  |  | 
C[C@H]1CCC[C@@](C)(N)C1 (relative stereo) [Mrz 2/631] | > 100 µM | > 100 µM | 30 mg/kg | 30 mg/kg |  |  | 
CC[C@H]1CC(C)(C)C[C@@](C)(N)C1 (relative stereo) [Mrz 2/632] | 10.9 µM | 11.2 µM | 11 mg/kg | 11 mg/kg | 2.7 |  | 
CC[C@@H]1CC(C)(C)C[C@@](C)(N)C1 (relative stereo) [Mrz 2/633] | 5.4 µM | 6.1 µM | 8.78 mg/kg | 8.78 mg/kg | 2.4 |  | 
CCC[C@@H]1CC(C)(C)C[C@](C)(N)C1 (relative stereo) [Mrz 2/634] | 19 µM | 19 µM | > 30 mg/kg | > 30 mg/kg |  |  | 
CCC[C@@H]1CC(C)(C)C[C@@](C)(N)C1 (relative stereo) [Mrz 2/635] | 8.2 µM | 8.18 µM | 31.6 mg/kg | 31.6 mg/kg | 1.3 |  | 
C[C@H]1CC(C)(C)C[C@@](C)(N)C1 (relative stereo) [Mrz 2/643] | 12 µM | 12 µM | 18.6 mg/kg | 18.6 mg/kg |  | 1.3 | 2.4
CC1(C)CC(N)CC(C)(C)C1 [Mrz 2/557] | 6.7 µM | 6.7 µM | 43.9 mg/kg | 43.9 mg/kg | 1.0 |  | 
CC1(C)CC(CN)CC(C)(C)C1.Cl [Mrz 2/580, 3,3,5,5-tetramethylcyclohexylmethylamine hydrochloride] | 5.6 µM | 5.6 µM | 27.3 mg/kg | 27.3 mg/kg | 1.6 |  | 
CCC1(N)CC(C)(C)CC(C)(C)C1 [Mrz 2/600, 1-amino-1-ethyl-3,3,5,5-tetramethylcyclohexane] | 2.1 µM | 2.1 µM | 22.6 mg/kg | 22.6 mg/kg | 0.6 |  | 
CCC1(C)CC(C)(C)CC(C)(N)C1 (stereo not drawn) [Mrz 2/615, 1-amino-1,3,5,5-tetramethyl-3-ethylcyclohexane] | 2.3 µM | 2.29 µM | 6.1 mg/kg | 6.1 mg/kg | 2.5 |  | 
CCCC1(C)CCCC(C)(N)C1 (stereo not drawn) [Mrz 2/617] | > 70 µM | > 70 µM | 54.9 mg/kg | 54.9 mg/kg |  |  | 1.1
CCC1(CC)CC(C)(C)CC(C)(N)C1 (stereo not drawn) [Mrz 2/623, 1-amino-1,5,5-trimethyl-3,3-diethylcyclohexane] | 4.5 µM | 4.5 µM | 13.1 mg/kg | 13.1 mg/kg | 1.4 |  | 
CCNC1(C)CC(C)(C)CC(C)(C)C1 [Mrz 2/639, N-ethyl-1-amino-1,3,3,5,5-pentamethylcyclohexane] | 5.7 µM | 6.33 µM | 5.5 mg/kg | 5.87 mg/kg | 2.6 |  | 
CNC1(C)CC(C)(C)CC(C)(C)C1.Cl [Mrz 2/640, N,1,3,3,5,5-hexamethylcyclohexanamine hydrochloride] | 8.3 µM | 8.35 µM | 8.2 mg/kg | 8.18 mg/kg | 2.3 |  | 
CC1(N)CCCCC1 [Mrz 2/641] | > 100 µM | > 100 µM | > 50 mg/kg | > 50 mg/kg |  |  | 
CC1(C)CC(CCN)CC(C)(C)C1 [Mrz 2/644] | 4.3 µM | 4.3 µM | 53 mg/kg | 53 mg/kg | 0.5 |  | 
CC(C)(N)CC1CC(C)(C)CC(C)(C)C1 [Mrz 2/645] | > 100 µM | > 100 µM | 65.6 mg/kg | 65.6 mg/kg |  |  | 0.6
